Experimental data taken from ChEMBL document CHEMBL5042496, “An unanticipated discovery towards novel naphthalimide corbelled aminothiazoximes as potential anti-MRSA agents and allosteric modulators for PBP2a” (Eur J Med Chem, 2022).
Values after ≈ are worked out from the molar mass of the structure shown. Active and inactive are the calls of the source. The calls are words filed in the database; no cut-off is given here.

Key:
Staphylococcus = assay: Binding affinity to Staphylococcus aureus PBP2a measured after 6 hrs by ELISA; conditions: filed as positive allosteric modulator
Staphylococcus aureus [1] = assay: Antibacterial activity against methicillin-resistant Staphylococcus aureus assessed as bacterial growth inhibition measured after 24 hrs by two fold serial dilution technique; format: functional
Enterococcus faecium = assay: Antibacterial activity against Enterococcus faecium assessed as bacterial growth inhibition measured after 24 hrs by two fold serial dilution technique; format: functional
Staphylococcus aureus [2] = assay: Antibacterial activity against Staphylococcus aureus assessed as bacterial growth inhibition measured after 24 hrs by two fold serial dilution technique; format: functional
Staphylococcus aureus [3] = assay: Antibacterial activity against Staphylococcus aureus ATCC 25923 assessed as bacterial growth inhibition measured after 24 hrs by two fold serial dilution technique; format: functional
Staphylococcus aureus [4] = assay: Antibacterial activity against Staphylococcus aureus ATCC 29213 assessed as bacterial growth inhibition measured after 24 hrs by two fold serial dilution technique; format: functional
Klebsiella pneumoniae = assay: Antibacterial activity against Klebsiella pneumoniae assessed as bacterial growth inhibition measured after 24 hrs by two fold serial dilution technique; format: functional
Escherichia coli [5] = assay: Antibacterial activity against Escherichia coli assessed as bacterial growth inhibition measured after 24 hrs by two fold serial dilution technique; format: functional
Pseudomonas aeruginosa [6] = assay: Antibacterial activity against Pseudomonas aeruginosa assessed as bacterial growth inhibition measured after 24 hrs by two fold serial dilution technique; format: functional
Acinetobacter baumannii = assay: Antibacterial activity against Acinetobacter baumannii assessed as bacterial growth inhibition measured after 24 hrs by two fold serial dilution technique; format: functional
Pseudomonas aeruginosa [7] = assay: Antibacterial activity against Pseudomonas aeruginosa ATCC 27853 assessed as bacterial growth inhibition measured after 24 hrs by two fold serial dilution technique; format: functional
Escherichia coli [8] = assay: Antibacterial activity against Escherichia coli ATCC 25922 assessed as bacterial growth inhibition measured after 24 hrs by two fold serial dilution technique; format: functional
[9] = Hemolytic activity in human RBC assessed as hemolysis incubated for 1 hr; format: toxicity, cell-based, Erythrocyte; conditions: red blood cells
L929 = assay: Cytotoxicity against mouse L929 cells assessed as reduction in cell viability at 0.39 to 100 ug/ml incubated for 24 hrs by MTT assay; format: toxicity, cell-based; conditions: l929, 24 h, dose 0.39-100 µg/ml
Staphylococcus aureus [10] = assay: Antibacterial activity against methicillin resistant Staphylococcus aureus treated over 16 serial passages measured after 24 hrs by resistance development assay; format: functional, organism-based
Staphylococcus aureus [11] = assay: Antibacterial activity against methicillin-resistant Staphylococcus aureus assessed as inhibition of bacterial growth at 1 time MIC measured after 2 hrs; format: functional, organism-based
Staphylococcus aureus [12] = assay: Antibacterial activity against methicillin-resistant Staphylococcus aureus assessed as inhibition of bacterial growth at 2 time MIC measured after 2 hrs; format: functional, organism-based
Staphylococcus aureus [13] = assay: Antibacterial activity against methicillin-resistant Staphylococcus aureus assessed as inhibition of bacterial growth at 0.5 time MIC measured after 2 hrs; format: functional, organism-based
Staphylococcus aureus [14] = assay: Antibacterial activity against methicillin-resistant Staphylococcus aureus assessed as disrupted cell shapes at 1 time MIC incubated for 8 hrs by SEM analysis; format: functional, organism-based
Cell membrane [15] = assay: Induction of membrane depolarization in methicillin-resistant Staphylococcus aureus at MIC measured upto 1 hr by DiSC35 dye-based fluorescence assay; conditions: time hrs <=1, TDE = time-dependent effect
Cell membrane [16] = assay: Induction of inner membrane permeabilization in methicillin-resistant Staphylococcus aureus at 1 time MIC measured for 1 hr by PI dye-based fluorescence assay; conditions: TDE = time-dependent effect
Cell membrane [17] = assay: Induction of inner membrane permeabilization in methicillin-resistant Staphylococcus aureus at 2 times MIC measured for 1 hr by PI dye-based fluorescence assay; conditions: TDE = time-dependent effect
Cell membrane [18] = assay: Induction of cell membrane disruption in methicillin-resistant Staphylococcus aureus assessed as increase in protein leakage measured after 6 hrs by Bradford assay
Staphylococcus aureus [19] = assay: Antibacterial activity against methicillin-resistant Staphylococcus aureus assessed as respiratory pathway inactivation by measuring decrease in LDH activity at MIC incubated for 6 hrs by LDH assay; format: functional; design: scale not given: the % may be the effect or the level left
Staphylococcus aureus [20] = assay: Antibacterial activity against methicillin-resistant Staphylococcus aureus assessed as respiratory pathway inactivation by measuring decrease in LDH activity measured after 6 hrs by LDH assay; format: functional, organism-based
Homo sapiens = organism: Homo sapiens; assay: Binding affinity to lipase (unknown origin) assessed as decrease in fluorescence intensity measured after 5 mins by fluorescence spectrofluorometric analysis
DNA [21] = assay: Binding affinity to DNA (unknown origin) assessed as hypochromicity at 0.2 to 0.8 10^-5 mol/L by UV spectrophotometric analysis; format: functional; conditions: Homo sapiens; dose 0.2-0.8 10^-5mol/L
DNA [22] = assay: Binding affinity to DNA (unknown origin) assessed as decrease in fluorescence intensity at 5 10^-5 mol/L by acridine orange staining based fluorescence microscopic analysis; format: functional; conditions: Homo sapiens
Staphylococcus aureus [23] = assay: Induction of ROS generation in methicillin-resistant Staphylococcus aureus after 6 hrs by DCFH-DA staining based fluorescence assay; format: functional, organism-based
Staphylococcus aureus [24] = assay: Antibacterial activity against methicillin-resistant Staphylococcus aureus assessed as pitted cell structures at 1 time MIC incubated for 8 hrs by SEM analysis; format: functional, organism-based
Staphylococcus aureus [25] = assay: Antibacterial activity against methicillin-resistant Staphylococcus aureus assessed as shriveled cell structures at 1 time MIC incubated for 8 hrs by SEM analysis; format: functional, organism-based
DNA [26] = assay: Binding affinity to DNA (unknown origin) assessed as decrease in maximum absorption peak at 410nm at 3 10^-5 mol/L by UV spectrophotometric analysis; format: functional; conditions: Homo sapiens
[27] = target: T1, MecA (Staphylococcus aureus) (UniProt Q7DHH4); assay: Binding affinity to Staphylococcus aureus PBP2a measured after 6 hrs by ELISA in the presence of Norfloxacin; conditions: filed as positive allosteric modulator
T1 sequence (whole entry): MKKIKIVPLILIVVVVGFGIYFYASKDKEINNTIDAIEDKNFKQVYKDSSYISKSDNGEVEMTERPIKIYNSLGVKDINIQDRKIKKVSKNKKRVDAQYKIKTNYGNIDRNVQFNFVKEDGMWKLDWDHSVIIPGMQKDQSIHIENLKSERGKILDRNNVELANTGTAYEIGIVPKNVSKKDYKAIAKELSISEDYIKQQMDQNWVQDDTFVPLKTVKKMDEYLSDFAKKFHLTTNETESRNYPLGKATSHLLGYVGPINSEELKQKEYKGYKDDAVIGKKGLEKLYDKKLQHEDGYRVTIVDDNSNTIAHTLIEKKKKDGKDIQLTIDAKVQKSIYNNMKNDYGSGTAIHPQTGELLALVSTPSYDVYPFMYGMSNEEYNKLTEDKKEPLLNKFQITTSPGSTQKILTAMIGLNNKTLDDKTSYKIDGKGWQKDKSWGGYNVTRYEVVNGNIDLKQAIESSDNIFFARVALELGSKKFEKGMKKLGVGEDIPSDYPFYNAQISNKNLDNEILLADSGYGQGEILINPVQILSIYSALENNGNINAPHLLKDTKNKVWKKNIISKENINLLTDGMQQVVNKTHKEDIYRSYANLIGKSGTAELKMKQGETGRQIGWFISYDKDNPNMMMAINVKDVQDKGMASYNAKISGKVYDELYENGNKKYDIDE

[28] = target: T1, MecA (Staphylococcus aureus); assay: Binding affinity to Staphylococcus aureus PBP2a measured after 6 hrs by ELISA in the presence of Ceftizoxime; conditions: filed as positive allosteric modulator
Staphylococcus aureus [29] = assay: Antibacterial activity against methicillin resistant Staphylococcus aureus treated over 10 serial passages measured after 24 hrs by resistance development assay; format: functional, organism-based

CN(C)CCN1C(=O)c2cccc3c(Br)ccc(c23)C1=O
Activity (Staphylococcus): 7.08 µg/mL

CO/N=C(\C(=O)N[C@@H]1C(=O)N2C(C(=O)O)=CCS[C@H]12)c1csc(N)n1
Activity (Staphylococcus): 7.45 µg/mL

CN(C)CCN1C(=O)c2cccc3c(N4CCNCC4)ccc(c23)C1=O
Activity (Staphylococcus): 4.74 µg/mL

CO/N=C(\C(=O)N1CCN(c2ccc3c4c(cccc24)C(=O)N(CCN(C)C)C3=O)CC1)c1csc(N)n1
MIC (Staphylococcus aureus [1]): 0.5 µg/mL (≈ 0.933 µM)
MIC (Enterococcus faecium): 4 µg/mL (≈ 7.47 µM)
MIC (Staphylococcus aureus [2]): 16 µg/mL (≈ 29.9 µM)
MIC (Staphylococcus aureus [3]): 8 µg/mL (≈ 14.9 µM)
MIC (Staphylococcus aureus [4]): 4 µg/mL (≈ 7.47 µM)
MIC (Klebsiella pneumoniae): 4 µg/mL (≈ 7.47 µM)
MIC (Escherichia coli [5]): 2 µg/mL (≈ 3.73 µM)
MIC (Pseudomonas aeruginosa [6]): 16 µg/mL (≈ 29.9 µM)
MIC (Acinetobacter baumannii): 16 µg/mL (≈ 29.9 µM)
MIC (Pseudomonas aeruginosa [7]): 8 µg/mL (≈ 14.9 µM)
MIC (Escherichia coli [8]): 16 µg/mL (≈ 29.9 µM)
HC50 at 1 h [9]: 205 µg/mL
Activity (L929): Non-Toxic
Activity (Staphylococcus aureus [10]): Active
Activity (Staphylococcus aureus [11]): Active
Activity (Staphylococcus aureus [12]): Active
Activity (Staphylococcus aureus [13]): Active
Activity (Staphylococcus aureus [14]): Active
Activity (Cell membrane [15]): Tde
Activity (Cell membrane [16]): Tde
Activity (Cell membrane [17]): Tde
Activity (Cell membrane [18]): Dose-Dependent Effect
Activity (Staphylococcus aureus [19]): 45%
Activity (Staphylococcus aureus [20]): Dose-Dependent Effect
Activity (Homo sapiens): Active
Activity (DNA [21]): Active
Activity (DNA [22]): Active
Activity (Staphylococcus aureus [23]): Dose-Dependent Effect
Activity (Staphylococcus): 4.58 µg/mL
Activity (Staphylococcus aureus [24]): Active
Activity (Staphylococcus aureus [25]): Active
Activity (DNA [26]): Active
Activity [27]: 4.96 ng/mL
Activity [28]: 1.29 ng/mL

CO/N=C(\C(=O)N1CCN(c2ccc3c4c(cccc24)C(=O)N(OC)C3=O)CC1)c1csc(N)n1
MIC (Staphylococcus aureus [1]): 128 µg/mL (≈ 259 µM)
MIC (Enterococcus faecium): 2 µg/mL (≈ 4.04 µM)
MIC (Staphylococcus aureus [2]): 128 µg/mL (≈ 259 µM)
MIC (Staphylococcus aureus [3]): 64 µg/mL (≈ 129 µM)
MIC (Staphylococcus aureus [4]): 64 µg/mL (≈ 129 µM)
MIC (Klebsiella pneumoniae): 128 µg/mL (≈ 259 µM)
MIC (Escherichia coli [5]): 64 µg/mL (≈ 129 µM)
MIC (Pseudomonas aeruginosa [6]): 128 µg/mL (≈ 259 µM)
MIC (Acinetobacter baumannii): 4 µg/mL (≈ 8.09 µM)
MIC (Pseudomonas aeruginosa [7]): 32 µg/mL (≈ 64.7 µM)
MIC (Escherichia coli [8]): 64 µg/mL (≈ 129 µM)
HC50 at 1 h [9]: 513 µg/mL
Activity (Staphylococcus): 5.43 µg/mL

CCn1cc(C(=O)O)c(=O)c2cc(F)c(N3CCNCC3)cc21 [NORFLOXACIN]
Activity (Staphylococcus aureus [29]): inactive
MIC (Staphylococcus aureus [1]): 16 µg/mL (≈ 50.1 µM)
MIC (Enterococcus faecium): 8 µg/mL (≈ 25.1 µM)
MIC (Staphylococcus aureus [2]): 8 µg/mL (≈ 25.1 µM)
MIC (Staphylococcus aureus [3]): 16 µg/mL (≈ 50.1 µM)
MIC (Staphylococcus aureus [4]): 16 µg/mL (≈ 50.1 µM)
MIC (Klebsiella pneumoniae): 4 µg/mL (≈ 12.5 µM)
MIC (Escherichia coli [5]): 2 µg/mL (≈ 6.26 µM)
MIC (Pseudomonas aeruginosa [6]): 4 µg/mL (≈ 12.5 µM)
MIC (Acinetobacter baumannii): 1 µg/mL (≈ 3.13 µM)
MIC (Pseudomonas aeruginosa [7]): 2 µg/mL (≈ 6.26 µM)
MIC (Escherichia coli [8]): 4 µg/mL (≈ 12.5 µM)
Activity (Staphylococcus): 7.67 µg/mL

CO/N=C(\C(=O)N1CCN(c2ccc3c4c(cccc24)C(=O)N(C2CCCCC2)C3=O)CC1)c1csc(N)n1
MIC (Staphylococcus aureus [1]): 16 µg/mL (≈ 29.3 µM)
MIC (Enterococcus faecium): 16 µg/mL (≈ 29.3 µM)
MIC (Staphylococcus aureus [2]): 64 µg/mL (≈ 117 µM)
MIC (Staphylococcus aureus [3]): 128 µg/mL (≈ 234 µM)
MIC (Staphylococcus aureus [4]): 64 µg/mL (≈ 117 µM)
MIC (Klebsiella pneumoniae): 16 µg/mL (≈ 29.3 µM)
MIC (Escherichia coli [5]): 64 µg/mL (≈ 117 µM)
MIC (Pseudomonas aeruginosa [6]): 128 µg/mL (≈ 234 µM)
MIC (Acinetobacter baumannii): 8 µg/mL (≈ 14.6 µM)
MIC (Pseudomonas aeruginosa [7]): 64 µg/mL (≈ 117 µM)
MIC (Escherichia coli [8]): 64 µg/mL (≈ 117 µM)
HC50 at 1 h [9]: 257 µg/mL

CO/N=C(\C(=O)N1CCN(c2ccc3c4c(cccc24)C(=O)N(NC(C)=O)C3=O)CC1)c1csc(N)n1
MIC (Staphylococcus aureus [1]): 4 µg/mL (≈ 7.67 µM)
MIC (Enterococcus faecium): 32 µg/mL (≈ 61.4 µM)
MIC (Staphylococcus aureus [2]): 64 µg/mL (≈ 123 µM)
MIC (Staphylococcus aureus [3]): 64 µg/mL (≈ 123 µM)
MIC (Staphylococcus aureus [4]): 32 µg/mL (≈ 61.4 µM)
MIC (Klebsiella pneumoniae): 32 µg/mL (≈ 61.4 µM)
MIC (Escherichia coli [5]): 4 µg/mL (≈ 7.67 µM)
MIC (Pseudomonas aeruginosa [6]): 32 µg/mL (≈ 61.4 µM)
MIC (Acinetobacter baumannii): 16 µg/mL (≈ 30.7 µM)
MIC (Pseudomonas aeruginosa [7]): 32 µg/mL (≈ 61.4 µM)
MIC (Escherichia coli [8]): 64 µg/mL (≈ 123 µM)
HC50 at 1 h [9]: 180 µg/mL
